Results on ten molecules are retold here after US20230398126A1 (priority 2022, published 2023).

Data set [1] can be described thus: in vitro. To be noted: African green monkey.
Data set [2] relates to MP12 virus. The experiment in a line: microbe, parasite or virus in culture. It is filed as cell-based. The note with it: Rift Valley fever virus, Vero C1008.
Data set [3] concerns virulent RVFVs. The note with it: cited from earlier work.
Data set [4] has as its system MP12 vaccine and its divergents. To be noted: cited from earlier work.

Some results are limits rather than exact numbers.

The term EC50 denotes the midpoint of the concentration-response curve.

Molecule `CN1C(=O)c2cccnc2Sc2cc(C(=O)Nc3ccc(Cl)cc3)ccc21` [WMA-RV1] showed a CC50 in data set [1] of 320 µM. This molecule also registered an EC50 in data set [2] of 0.863 µM.
Consider `CC(Cl)C(=O)N1CCN(c2nccc(-c3ccc(C(C)(C)C)cc3)n2)CC1` (centres unmarked) [WMA-RV4], for which, in data set [1], the CC50 was found to be 168 µM. This molecule returned an EC50 in data set [2] of 3.19 µM.
Turning to `NC(=O)c1ccc2c(c1)n(Cc1cccc(F)c1)c(=O)c1ccnn12` [WMA-RV2], in data set [1], the CC50 was above 1280 µM. In data set [2], this molecule gave an EC50 of 6.96 µM.
For the molecule `O=c1cnn([C@@H]2O[C@H](CO)[C@@H](O)[C@H]2O)c(=O)[nH]1` [Compound 6-azauridine, 6-azauridine], in data set [3], the “antiviral activity on tested virulent RVFVs” value is reported as “antiviral activity”. In data set [4], the “inhibition of MP12 vaccine and its divergents” value is “inhibited”.
`Cc1ccc(CN2CCCN(c3ccc(NC(=O)c4ccccc4C)cn3)CC2)cc1` [WMA-RV6]: the CC50 in data set [1] was found to be 692 µM. In data set [2], this molecule showed an EC50 of 1.03 µM.
The molecule `Cc1nn(-c2ccccc2)c2sc(C(=O)NC(C)C)cc12` [WMA-RV8] registered a CC50 in data set [1] above 1280 µM. The molecule further returned an EC50 in data set [2] of 13 µM.
In turn, `Cc1ccccc1CN1CCCN(c2cccc(NC(=O)c3cccs3)c2)C1=O` [WMA-RV7] showed a CC50 in data set [1] above 1280 µM. The molecule further showed an EC50 in data set [2] of 15.5 µM.
`NC(=O)c1ncn([C@@H]2O[C@H](CO)[C@@H](O)[C@H]2O)n1` [Ribavirin]: the “antiviral activity on tested virulent RVFVs” value in data set [3] was “antiviral activity”. Also, in data set [4], the “inhibition of MP12 vaccine and its divergents” value is on record as “inhibited”.
In turn, `Cc1cc(C)c(C)c(S(=O)(=O)N2CCC(c3c[nH]c4c(C)cccc34)CC2)c1C` [WMA-RV5] yielded a CC50 in data set [1] above 1280 µM. Moreover, the EC50 in data set [2] came to 9.14 µM.
The matching figures for `CC(Cl)C(=O)N1CCCN(c2nc3ccccc3nc2-c2ccccc2)CC1` (centres unmarked) [WMA-RV3]: 363 µM and 2.08 µM.
